Measurements from paper PMC11721817 (Toxicology Reports, 2024).

Legend:
[1] = test system: CT-26 (murine colorectal cancer cells); assay: MTT cytotoxicity assay, CT-26; type: cell-based; settings: Mus musculus, CT26, 24 h
red blood cells (RBCs) = assay: Hemolysis assay; type: cell-based; settings: rat blood, 10 μM, 25 μM, 50 μM, and 100 μM, compared to positive control
Wistar rats [2] = assay: Superoxide dismutase activity in organ homogenates; type: in vivo, rat
[3] = test system: HCT-116 (human colorectal cancer cells); assay: MTT cytotoxicity assay, HCT-116; type: cell-based
CT-26 cells [4] = assay: DNA fragmentation, Hoechst staining, CT-26; type: cell-based, murine; settings: CT-26, 50 µM, 24 h
CT-26 cells [5] = assay: Cell migration; type: cell-based, murine; settings: 24 h, control = 100 %
Wistar rats [6] = assay: Histopathological examination of liver, kidney and spleen; type: in vivo, rat; settings: for Liver sections, histopathology / Spleen sections, histopathology: H&E
Wistar rats [7] = assay: Lipid peroxidation assay; type: in vivo, rat; settings: 1000 mg/kg, compared to control
HCT-116 cells [8] = assay: Cell migration; type: cell-based, human; settings: 24 h, control = 100 %
HCT-116 cells [9] = assay: DNA fragmentation, Hoechst staining, HCT-116; type: cell-based, human; settings: HCT-116, 50 µM, 24 h
Wistar rats [10] = assay: Acute oral toxicity study; settings: for change in body weight / food consumed by animals (weight) / change in organ weight, Kidney / change in organ weight, Liver / change in organ weight, Spleen: mean ± S.E.M, n = 5
Wistar rats [11] = assay: Serum biochemistry after acute oral administration; settings: n = 3; for Globulin: normal range 1.5–2.5, mean ± S.E.M; for A/G ratio: normal range 1.58–2.67, mean ± S.E.M; for Albumin: normal range 3.4–4.8, mean ± S.E.M; for Total protein: normal range 5.2–7.1, mean ± S.E.M; for SGPT (ALT): normal range 18–45, mean ± S.E.M; for ALP: normal range 62–230, mean ± S.E.M; for SGOT (AST): normal range 74–183, mean ± S.E.M

## CC(C)(C)CC(C)(C)Nc1c(-c2ccc(-c3ccccc3)cc2)nc2cnccn12 [IG-01–008, 2-([1,1’-biphenyl]-4-yl)-N-(2,4,4-trimethylpentan-2-yl)imidazo[1,2-a]pyrazin-3-amine]
[1]
  IC50: 48.1 ± 22.6 µM
Red blood cells (RBCs)
  hemolytic activity: did not show any hemolytic activity
Wistar rats [2]; 300 mg/kg, compared with control and 1 % DMSO
  SOD level, spleen: significant decrease seen in SOD level
Wistar rats [2]; 1000 mg/kg, compared with IG-01–007 and IG-01–008 at 300 mg/kg
  SOD level, spleen: significant reduction of SOD level
Wistar rats [2]; 1000 mg/kg, compared with IG-01–007 at 300 mg/kg
  SOD levels, kidney: SOD levels were significantly decreased
Wistar rats [2]; 1000 mg/kg, compared with control and 1 % DMSO
  SOD level, spleen: significant decrease seen in SOD level
Wistar rats [2]; 1000 mg/kg, in comparison with 1 % DMSO
  SOD levels, kidney: SOD levels significantly decreased
[3]; HCT-116, 10 μM and 25 μM
  cell viability: no significant reduction in cell viability
[3]; HCT-116, 50 μM and 100 μM
  cytotoxicity: higher cytotoxicity compared to IG-01–007
[3]; Homo sapiens, HCT-116, 24 h
  IC50: 30.9 ± 10.6 µM
CT-26 cells [4]
  DNA fragmentation: DNA fragmentation
CT-26 cells [5]; CT-26, 25 μM
  migration percentages: 35.65%
CT-26 cells [5]; CT-26, 50 μM
  migration percentages: 39.17%
Wistar rats [6]; 300 mg/kg
  Liver sections, histopathology: mild steatosis and presence of micro and macro vesicles
  Spleen sections, histopathology: ill-defined spleen section
Wistar rats [6]; 1000 mg/kg
  Liver sections, histopathology: moderate to severe fatty liver change with presence of sinusoidal spaces indicated by arrow and multi necrotic foci filled with mild hemorrhage
  Spleen sections, histopathology: disrupt white pulp
Wistar rats [6]; doses of ≥ 1000 mg/kg
  toxicity in liver tissues (abstract): hepatic damage and cholestasis
Wistar rats [7]
  MDA levels, liver: significantly higher
HCT-116 cells [8]; HCT-116, 25 μM
  % migration of cell: 36.33%
HCT-116 cells [8]; HCT-116, 50 μM
  % migration of cell: 20.76%
HCT-116 cells [9]
  DNA fragmentation: DNA fragmentation
Wistar rats [10]; 0 day, 300 mg/kg
  change in body weight: 242 ± 5.1478 gm
  food consumed by animals (weight): 92.2 ± 0.374 gm
Wistar rats [10]; 0 day, 1000 mg/kg
  change in body weight: 249 ± 8.124 gm
  food consumed by animals (weight): 92.4 ± 1.166 gm
Wistar rats [10]; 300 mg/kg
  change in organ weight, Kidney: 2.058 ± 0.123 gm
  change in organ weight, Liver: 6.21 ± 0.15 gm
  change in organ weight, Spleen: 0.83 ± 0.0763 gm
Wistar rats [10]; 1000 mg/kg
  change in organ weight, Kidney: 1.954 ± 0.110 gm
  change in organ weight, Liver: 6.74 ± 0.332 gm
  change in organ weight, Spleen: 0.747 ± 0.1135 gm
Wistar rats [10]; 7th and 14th day, 1000 mg/kg
  body weight course: gradual decrease in body weight
Wistar rats [10]; 7th day, 300 mg/kg and 1000 mg/kg, compared to control
  food consumption: significant decrease in food consumption
Wistar rats [10]; 7th day, 300 mg/kg
  change in body weight: 254 ± 6.595 gm
  food consumed by animals (weight): 86.2 ± 0.969 gm
Wistar rats [10]; 7th day, 1000 mg/kg
  change in body weight: 236 ± 8.124 gm
  food consumed by animals (weight): 83.2 ± 0.86 gm
Wistar rats [10]; 14th day, 300 mg/kg and 1000 mg/kg, compared to 1 % DMSO
  food intake: significant reduction in food intake
Wistar rats [10]; 14th day, 300 mg/kg, compared to control
  food intake: significant decrease in food intake
Wistar rats [10]; 14th day, 300 mg/kg
  change in body weight: 257 ± 6.04 gm
  food consumed by animals (weight): 81.2 ± 0.916 gm
Wistar rats [10]; 14th day, 1000 mg/kg, compared to control
  food intake: significant decrease in food intake
Wistar rats [10]; 14th day, 1000 mg/kg
  change in body weight: 225 ± 8.366 gm
  food consumed by animals (weight): 76 ± 1.702 gm
Wistar rats [10]; day 14th, 1000 mg/kg, compared to control
  body weight: significantly lowered
Wistar rats [10]; oral, 1000 mg/kg
  toxicity signs: toxicity signs were seen
  tremors, change in eye and skin color: tremors, change in eye and skin color was observed
Wistar rats [10]; oral, 2000 mg/kg
  Mortality: Mortality was observed
Wistar rats [11]; 300 mg/kg
  Globulin: 4.30 ± 0.529 g/dL
  A/G ratio: 0.736 ± 0.0523
  Albumin: 3.166 ± 0.2905 g/dL
  Total protein: 7.266 ± 0.523 g/dL
  SGPT (ALT): 60.33 ± 3.756 U/L
  ALP: 391.33 ± 9.261 U/L
  SGOT (AST): 255 ± 5.291 U/L
Wistar rats [11]; 1000 mg/kg
  Globulin: 4.35 ± 0.144 g/dL
  A/G ratio: 0.923 ± 0.0648
  Albumin: 3.67 ± 0.2055 g/dL
  Total protein: 7.60 ± 0.3183 g/dL
  SGPT (ALT): 79.0 ± 1.732 U/L
  ALP: 501.66 ± 13.64 U/L
  SGOT (AST): 302.33 ± 4.096 U/L
Wistar rats [11]; 1000 mg/kg, normal range 20–114, mean ± S.E.M
  Triglycerides: 115.33 ± 5.487 mg%
